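Cells were grown in 96-well plates and exposed to each compound for 48 hours at five concentrations; endpoints were interpolated linearly between bracketing concentrations, or set to the highest concentration if not reached. The concentration for 50% growth inhibition is given as GI50.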 Active and inactive are the calls of the source. Cut-off read from the data, not from the text of the source: active = GI50 up to about 1.1 µM and inactive = higher. Non-standard residues stand in square brackets, D forms with d. Residues, ends and D or L forms follow the SMILES beside them. *: point of attachment. NMeF = CN[CH](Cc1ccccc1)C(=O)O; NMeV = CN[CH](C(=O)O)C(C)C; Boc = CC(C)(C)OC(=O)*
Key:
Experiment in all cases: NCI-60 cell line screen, 48 h
A549 = test system: A549
ACHN = test system: ACHN
HCC 2998 = test system: HCC 2998
IGROV-1 = test system: IGROV-1
K562 = test system: K562
KM12 = test system: KM12
M14 = test system: M14
OVCAR-5 = test system: OVCAR-5
SF-268 = test system: SF-268
SK-MEL-2 = test system: SK-MEL-2
SK-MEL-5 = test system: SK-MEL-5
SK-OV-3 = test system: SK-OV-3
SNB-75 = test system: SNB-75
SR = test system: SR
U-251 = test system: U-251
UACC-257 = test system: UACC-257
UACC-62 = test system: UACC-62
UO-31 = test system: UO-31
SN12C = test system: SN12C

Measured: GI50

CC1C2C=C(O)C(=O)C(C2=O)C1c1ccccc1 (configuration not stated)
inactive: A549 > 100 µM | ACHN > 100 µM | HCC 2998 > 100 µM | IGROV-1 > 100 µM | K562 > 100 µM | KM12 > 100 µM | M14 > 100 µM | OVCAR-5 > 100 µM | SF-268 > 100 µM | SK-MEL-2 > 100 µM | SK-MEL-5 > 100 µM | SK-OV-3 > 100 µM | SNB-75 82.6 µM | SR > 100 µM | U-251 > 100 µM | UACC-257 > 100 µM | UACC-62 > 100 µM | UO-31 > 100 µM

COc1ccc(OC)c(/C(C)=N/NC(N)=S)c1
inactive: A549 > 100 µM | ACHN > 100 µM | HCC 2998 > 100 µM | IGROV-1 > 100 µM | K562 > 100 µM | KM12 > 100 µM | M14 > 100 µM | OVCAR-5 > 100 µM | SF-268 > 100 µM | SK-MEL-2 > 100 µM | SK-MEL-5 > 100 µM | SK-OV-3 > 100 µM | SN12C > 100 µM | SNB-75 > 100 µM | SR > 100 µM | U-251 > 100 µM | UACC-257 > 100 µM | UACC-62 > 100 µM | UO-31 > 100 µM

CC(C)C1CC[C@@H](C)C[C@@]1(O)CC(N)=O (some centres not stated)
inactive: A549 > 100 µM | ACHN > 100 µM | HCC 2998 > 100 µM | IGROV-1 > 100 µM | K562 > 100 µM | KM12 > 100 µM | M14 > 100 µM | OVCAR-5 > 100 µM | SK-MEL-2 > 100 µM | SK-MEL-5 > 100 µM | SK-OV-3 > 100 µM | SN12C > 100 µM | SNB-75 66.2 µM | SR > 100 µM | U-251 > 100 µM | UACC-257 > 100 µM | UACC-62 > 100 µM | UO-31 > 100 µM

CC1=NC2(C(=O)O)C3(C(=O)O)N=C(C)OC3(C(F)(F)F)C2(C(F)(F)F)O1 (configuration not stated)
inactive: A549 > 100 µM | ACHN > 100 µM | HCC 2998 > 100 µM | IGROV-1 > 100 µM | K562 > 100 µM | KM12 > 100 µM | M14 > 100 µM | OVCAR-5 > 100 µM | SF-268 > 100 µM | SK-MEL-2 > 100 µM | SK-OV-3 > 100 µM | SN12C > 100 µM | SNB-75 > 100 µM | SR > 100 µM | U-251 > 100 µM | UACC-257 > 100 µM | UACC-62 > 100 µM | UO-31 > 100 µM

CCC1C(C)c2c([nH]c3ccccc23)C2C(=O)N(c3ccccc3)C(=O)C21 (configuration not stated)
inactive: A549 17.3 µM | ACHN 18.2 µM | HCC 2998 15.5 µM | IGROV-1 3.67 µM | K562 12.6 µM | KM12 15 µM | M14 17.8 µM | SF-268 20 µM | SK-MEL-5 15.4 µM | SK-OV-3 19.4 µM | SN12C 13.5 µM | SNB-75 11.4 µM | SR 8.41 µM | U-251 14.6 µM | UACC-62 9.42 µM

CN(C)c1ccccc1CC(c1c[nH]c2ccccc12)c1c[nH]c2ccccc12
inactive: A549 10.2 µM | ACHN 8.36 µM | HCC 2998 9.46 µM | IGROV-1 15.8 µM | K562 10.7 µM | KM12 4.36 µM | M14 11.4 µM | OVCAR-5 16.9 µM | SF-268 14.8 µM | SK-MEL-2 14.8 µM | SK-MEL-5 15.3 µM | SK-OV-3 19.3 µM | SN12C 3.1 µM | SNB-75 10.3 µM | SR 5.46 µM | U-251 12.1 µM | UACC-257 16.2 µM | UACC-62 14.2 µM | UO-31 10.9 µM

COc1cc(C(=O)C(CO)Oc2ccccc2OC)ccc1O (configuration not stated)
inactive: A549 > 100 µM | ACHN > 100 µM | HCC 2998 > 100 µM | IGROV-1 > 100 µM | K562 42.1 µM | KM12 > 100 µM | M14 > 100 µM | OVCAR-5 > 100 µM | SF-268 > 100 µM | SK-MEL-5 > 100 µM | SK-OV-3 > 100 µM | SN12C > 100 µM | SNB-75 67 µM | SR 34.9 µM | U-251 > 100 µM | UACC-257 > 100 µM | UACC-62 > 100 µM | UO-31 > 100 µM

COc1ccc(-c2cc(=O)c3cc(O)ccc3o2)c(OC)c1OC
inactive: A549 35.6 µM | ACHN 19.5 µM | HCC 2998 35.6 µM | IGROV-1 42.8 µM | K562 24.8 µM | KM12 28.2 µM | M14 37.9 µM | OVCAR-5 20.2 µM | SF-268 24.8 µM | SK-MEL-2 28.3 µM | SK-OV-3 35.3 µM | SN12C 32.6 µM | SNB-75 23.1 µM | SR 12.7 µM | UACC-257 32.2 µM | UACC-62 28.7 µM

[O-][n+]1c2ccccc2[n+]([O-])c2cc(Br)ccc21
inactive: A549 10.8 µM | ACHN 4.81 µM | HCC 2998 16.5 µM | IGROV-1 5.81 µM | K562 4.63 µM | KM12 12.6 µM | M14 17.2 µM | OVCAR-5 27.8 µM | SF-268 13.7 µM | SK-MEL-2 29 µM | SK-MEL-5 13.3 µM | SN12C 21.5 µM | SNB-75 26.3 µM | SR 2.02 µM | U-251 14.6 µM | UACC-257 17.9 µM | UACC-62 18.3 µM | UO-31 9.48 µM

CC(C)C(NC(=O)OC(C)(C)C)C(=O)N(C)C(Cc1ccccc1)C(=O)N(C)C(C(=O)O)C(C)C (stereo not drawn) (Boc-Val-[NMeF]-[NMeV]-OH; configuration not given here)
inactive: A549 > 100 µM | HCC 2998 > 100 µM | IGROV-1 > 100 µM | K562 > 100 µM | KM12 > 100 µM | M14 > 100 µM | SF-268 62.4 µM | SK-MEL-5 > 100 µM | SK-OV-3 > 100 µM | SN12C > 100 µM | SR > 100 µM | U-251 > 100 µM | UACC-257 > 100 µM | UACC-62 > 100 µM | UO-31 > 100 µM

O=S1(=O)OCCOS(=O)(=O)C1(Br)Cc1ccccc1
inactive: A549 > 100 µM | ACHN > 100 µM | HCC 2998 > 100 µM | IGROV-1 > 100 µM | K562 > 100 µM | M14 > 100 µM | OVCAR-5 > 100 µM | SF-268 > 100 µM | SK-MEL-2 > 100 µM | SK-MEL-5 > 100 µM | SK-OV-3 > 100 µM | SN12C > 100 µM | SNB-75 33 µM | SR > 100 µM | U-251 > 100 µM | UACC-257 > 100 µM | UACC-62 > 100 µM | UO-31 > 100 µM

From ChEMBL document CHEMBL1201862, “PubChem BioAssay data set” (2004)
